Source: PMC8322070, “A novel orally active HDAC6 inhibitor T-518 shows a therapeutic potential for Alzheimer’s disease and tauopathy in mice” (Scientific Reports, 2021)
Where two headings read alike, the source gives them in different places.

Columns and labels:
human HDAC7 = molecular target: T1, human HDAC7 (Homo sapiens, UniProt Q8WUI4); assay: HDAC enzyme assay (HDAC-Glo class IIa), HDAC7; type: biochemical; details: concentrations up to 10 μM
T1 construct: purchased SignalChem Pharmaceutical Inc
T1 sequence (Q8WUI4 1-952): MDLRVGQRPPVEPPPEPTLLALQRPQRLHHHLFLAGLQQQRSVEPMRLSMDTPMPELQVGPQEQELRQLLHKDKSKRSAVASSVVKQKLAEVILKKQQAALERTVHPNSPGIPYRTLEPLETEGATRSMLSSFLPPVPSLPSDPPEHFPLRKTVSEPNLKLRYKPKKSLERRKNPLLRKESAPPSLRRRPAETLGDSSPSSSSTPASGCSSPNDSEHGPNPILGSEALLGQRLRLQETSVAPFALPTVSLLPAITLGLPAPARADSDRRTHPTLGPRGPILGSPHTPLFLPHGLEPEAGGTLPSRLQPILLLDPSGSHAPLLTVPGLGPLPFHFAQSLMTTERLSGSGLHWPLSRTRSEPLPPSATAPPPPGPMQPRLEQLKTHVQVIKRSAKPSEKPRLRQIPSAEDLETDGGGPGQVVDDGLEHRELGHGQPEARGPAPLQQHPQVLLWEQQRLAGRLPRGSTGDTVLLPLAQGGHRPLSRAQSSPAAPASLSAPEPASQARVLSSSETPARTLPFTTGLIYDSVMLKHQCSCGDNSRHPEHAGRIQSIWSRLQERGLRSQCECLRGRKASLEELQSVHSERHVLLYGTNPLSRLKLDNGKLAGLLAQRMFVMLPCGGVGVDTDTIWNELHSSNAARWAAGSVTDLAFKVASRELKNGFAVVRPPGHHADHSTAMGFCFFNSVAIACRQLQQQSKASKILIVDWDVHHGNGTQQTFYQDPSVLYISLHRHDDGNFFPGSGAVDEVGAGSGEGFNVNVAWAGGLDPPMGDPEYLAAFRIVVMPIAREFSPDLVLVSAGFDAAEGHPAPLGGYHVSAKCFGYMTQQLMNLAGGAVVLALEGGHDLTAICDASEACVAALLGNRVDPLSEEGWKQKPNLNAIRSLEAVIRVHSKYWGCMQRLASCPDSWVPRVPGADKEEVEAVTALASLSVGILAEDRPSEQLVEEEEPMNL
Protocol: Recombinant HDAC6, HDAC7, HDAC1 were obtained from SignalChem Pharmaceutical Inc. (Richmond, BC, Canada), and recombinant human HDAC4 was prepared at Takeda pharmaceutical company. One μL of T-518 diluted with DMSO was added to 75 μL of assay buffer (24 mM Tris–HCl (pH 7.5), 135 mM NaCl, 0.35 mM KCl, 1 mM MgCl2, 0.01% Tween 20, 0.6 mM GSH) in 384 well plates. Two μL of diluted compounds were added to 384 well plates and 2 μL of recombinant HDAC enzymes was added and then centrifuged at 1000 rpm for 10 s. The final concentrations of each HDAC enzyme were as follows, human HDAC1, 170 pM; human HDAC6, […]; human HDAC4, 68 pM; human HDAC7, 13 pM. After incubation for 60 min at room temperature, 4 μL of HDAC-Glo reagent [HDAC-Glo I/II (Promega) for HDAC6 and HDAC1, HDAC-Glo class IIa (Promega) for HDAC4 and HDAC7] was added to start the reaction. After incubation for 20 min at room temperature, the luminescence was measured by Envision plate reader (PerkinElmer, Waltham, MA, USA). For experiments under the condition of 0 min preincubation, 4 μL of HDAC-Glo reagent was added at first to the 384 well plates including diluted compounds. […] After centrifugation at 1000 rpm for 10 s. and then incubation for 20 min at room temperature, the luminescence was measured by Envision. […] The inhibitory activity of T-518 was expressed as the value of IC50. […]

[1] = In vivo pharmacokinetics in plasma and hippocampus (LC-MS/MS); design: species or system C57BL mice; details: 3 mg/kg, po
Protocol: T-518, ACY-738, Ricolinostat, and Tubastatin A were synthesized in Takeda. For in vitro cellular experiments, the compounds were solubilized with DMSO and diluted in the culture medium at the indicated concentrations. For in vivo experiments, the compound was reconstituted in 0.5% methylcellulose and administered orally at the indicated doses. After administration, mouse hippocampus was isolated and homogenized in RIPA extraction buffer (50 mM Tris–HCl, 150 mM NaCl, 1% NP-40, 0.5% sodium deoxycholate, and 0.1% SDS, pH 8.0) supplemented with protease and phosphatase inhibitor cocktail (Thermo Fischer, Waltham, MA, USA). The homogenate was centrifuged at 10,000g for 15 min and the supernatant was taken as the RIPA-soluble fraction.
The compound concentration was measured by the method previously reported with modification. Briefly, the hippocampus tissues from treated mice were isolated and homogenized in 4 volumes of saline under ice-cold conditions and stored at − 80 °C until liquid chromatography-tandem mass spectrometry (LC–MS/MS) analysis. Before analysis, samples were thawed gently on ice and mixed with three volumes of acetonitrile. The acetonitrile mixtures were vortexed and centrifuged for supernatant collection. The supernatant was diluted in mobile phase A [10 mM ammonium formate and formic acid at 100:0.2 (v/v)] and injected into the LC/MS/MS system. T-518 was analyzed in multiple reaction monitoring mode using an API4000 or API5000 instrument (Applied Biosystems, Foster City, CA, USA) equipped with a Prominence Ultra-fast liquid chromatography system (Shimadzu, Kyoto, Japan) using Shimadzu Shim- pack XR-ODS (2.2 μm, 2.0 × 30 mm) column. Mobile phase B consisted of a mixture of acetonitrile and formic acid at 100:0.2 (v/v). Chromatographic separations were performed by gradient elution at a flow rate of 0.7 mL/min. Mobile phase B was held at 5% for 0.2 min, increased linearly to 99% for 1.1 min, maintained at 99% for 0.7 min, then returned to 5% in 0.01 min, followed by re-equilibration for 0.59 min. A multiple reaction monitoring was used to detect the parent and product ions for the tandem mass spectrometry of T-518, which were corresponding to m/z 494 and m/z 374, respectively, with the negative ion mode [DP; -40, EP; -10, CE; -35, CXP; -15 (arbitrary units)]. Analyst software TM (version 1.6.2) (AB SCIEX, Framingham, MA; https://sciex.com/products/software/analyst-software) was used for data acquisition and processing.

For O=C1c2cc(-c3nnc(C(F)F)o3)cnc2CN1[C@@H]1CCCC[C@H]1NC(=O)C(F)(F)C(F)(F)F [T-518, N-[(1R,2R)-2-{3-[5-(difluoromethyl)-1,3,4-oxadiazol-2-yl]-5-oxo-5H,6H,7H-pyrrolo[3,4-b]pyridin-6-yl}cyclohexyl]-2,2,3,3,3-pentafluoropropanamide], the “inhibition of human HDAC7 enzyme activity” value (human HDAC7) was “did not obviously inhibit”, the “average exposure in 24 h in hippocampus” value ([1]; Fu,b 0.4) was ~17 nM and the “Hippocampus AUC0–24 h” value ([1]; C57BL mice) was 202 ng·h/g. The Cmax ([1]; C57BL, mouse, hippocampus, Fu,b 0.4, read-out: Effective Cmax in hippocampus) was ~0.291 µM, the Tmax ([1]; C57BL, mouse, plasma and hippocampus, matrix not given, read-out: Tmax of a single oral dose) was ≤ 15 min and the Cmax ([1]; mouse, hippocampus, C57BL mice, read-out: Hippocampus Cmax) was 144 ng/g. It also gave an MRT ([1]; mouse, hippocampus, C57BL mice, read-out: Hippocampus MRT) of 79.8 min, a Tmax ([1]; mouse, hippocampus, C57BL mice, read-out: Hippocampus Tmax) of 15 min and an AUC(0-t) ([1]; mouse, plasma, C57BL mice, read-out: Plasma AUC0–24 h) of 1.72 µg·h/mL. It also gave a Cmax ([1]; mouse, plasma, C57BL mice, read-out: Plasma Cmax) of 1.04 µg/mL, an MRT ([1]; mouse, plasma, C57BL mice, read-out: Plasma MRT) of 106 min and a Tmax ([1]; mouse, plasma, C57BL mice, read-out: Plasma Tmax) of 15 min.
